Laboratory results taken from patent US12472166B2, “Inhibition of mycobacterial type VII secretion” (priority 2019, dated 2025).

Key:
[1] = tested on: resistant M. tuberculosis strains; format: cell-based
[2] = tested on: M. tuberculosis overexpressing ethA; format: cell-based

SMILES	concentration in presence of which resistant strains were grown [1]	increase compared to the susceptible WT strain [1]	increased susceptibility as compared to the parent WT strain [2]	activity in the ethA overexpression strain compared to WT M. tuberculosis [2]
COc1ccc(-c2nsc(SCC(=O)NC3CCCC3)n2)cc1 [Compound I-12]	80 µM	64 fold	at least 4 fold	–
O=C(CSc1nc(-c2ccccc2)no1)NC1CCCC1 [Compound I-28]	–	–	–	increased activity in the ethA overexpression strain
O=C(CSc1nc(-c2ccccc2)no1)NC1CCCC1 [Compound I-31]	–	–	–	did not show an increased activity
